Some test systems named below: SR leukemia; CCRF-CEM leukemia; HCC-2998 colon; HCT-15 colon; SK-MEL-5 melanoma; RPMI-8226 leukemia; MDA-MB-231 breast; PC-3 prostate; T-47D breast; NCI/ADR-RES ovarian.
Common to all, as to test: NCI tumour cell line growth inhibition, 48 h

14 molecules from PubChem BioAssay (NCI) can be followed below.

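The compound was tested at five concentrations on cells cultured in 96-well plates, with a 48-hour exposure period. GI50: concentration for 50% inhibition of growth. At the TGI there is no net growth.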 Bounds are passed on as bounds.

Take `C=CCn1c(=S)sc2c(C(=O)OCC)c3c(C)cc(C)cn3c2c1=O`: the TGI with SR leukemia, with CCRF-CEM leukemia, in the test on HCC-2998 colon, in the test on HCT-15 colon, in the test with SK-MEL-5 melanoma and in the test on RPMI-8226 leukemia was > 100 µM in each case.

As for `c1ccc(-c2nn3c(c2-c2ccnc4cc(OCCN5CCOCC5)ccc24)CCC3)nc1`, the GI50 with MDA-MB-231 breast was > 100 µM; in the test with CCRF-CEM leukemia, > 95.9 µM; in the test on HCC-2998 colon, > 100 µM; with PC-3 prostate it was 98.8 µM; with T-47D breast it was > 100 µM; in the test on NCI/ADR-RES ovarian it was 52.4 µM. For the same molecule, the figures for the GI50 in the test with HCT-15 colon, in the test with SK-MEL-5 melanoma and with RPMI-8226 leukemia were 31.5 µM, 43.9 µM and 53.7 µM, respectively. Besides, the TGI in the test on MDA-MB-231 breast, with CCRF-CEM leukemia, in the test on HCC-2998 colon, in the test on PC-3 prostate, in the test on T-47D breast and with NCI/ADR-RES ovarian was > 100 µM in each case. In addition, the TGI in the test on HCT-15 colon, in the test with SK-MEL-5 melanoma and with RPMI-8226 leukemia was > 100 µM throughout.

As to `N#C/C(=C/C=C/c1ccco1)C(N)=O`, the TGI in the test on MDA-MB-231 breast, in the test with HCC-2998 colon, in the test with PC-3 prostate, in the test on T-47D breast, in the test with NCI/ADR-RES ovarian and in the test on HCT-15 colon was > 10 µM throughout. The TGI in the test with SK-MEL-5 melanoma is > 10 µM.

As for `CCOC(=O)NC(=O)c1cn(CCN2CCN(C(=O)CNC(=O)CNC(=O)Cn3cc(C(=O)NC(=O)OCC)c(=O)[nH]c3=O)CC2)c(=O)[nH]c1=O`, the TGI in the test with SR leukemia, with CCRF-CEM leukemia, in the test with HCC-2998 colon and in the test on HCT-15 colon was > 100 µM in each case.

Take `CC(C)C1CO[C@]2(C)CCC(=O)N12` (some centres not stated): the TGI in the test on SR leukemia, with CCRF-CEM leukemia, in the test on HCT-15 colon, in the test on SK-MEL-5 melanoma and with RPMI-8226 leukemia was > 100 µM in each case.

For `C[N+]1=c2c3cccc4cccc(c(=O)n2CC1)c43`, the TGI in the test on SR leukemia worked out at 9.59 µM; in the test on CCRF-CEM leukemia, 42.3 µM; in the test on HCT-15 colon it was 60.7 µM; in the test with SK-MEL-5 melanoma it was 32.8 µM; in the test with RPMI-8226 leukemia, 93.1 µM.

Consider `NC(=N\N=C/c1ccc(O)cc1)/C(N)=N\N=C/c1ccc(O)cc1`, for which the GI50 is 10.7 µM in the test on MDA-MB-231 breast; 0.324 µM in the test on CCRF-CEM leukemia; 8.56 µM in the test with HCC-2998 colon; > 29 µM with PC-3 prostate; 13.6 µM in the test on T-47D breast; > 100 µM with NCI/ADR-RES ovarian. The GI50 in the test with SK-MEL-5 melanoma is 3.06 µM; with RPMI-8226 leukemia, > 24.8 µM. Besides, the TGI in the test with MDA-MB-231 breast, with CCRF-CEM leukemia, in the test on HCC-2998 colon, in the test on PC-3 prostate, with T-47D breast and with NCI/ADR-RES ovarian was > 100 µM each time. In addition, the TGI in the test with HCT-15 colon was > 100 µM; with SK-MEL-5 melanoma it was 73.1 µM; in the test on RPMI-8226 leukemia, > 100 µM.

Take `N#C/C(=C1\SCC(=O)N1c1ccccc1)c1nc2ccccc2[nH]1`: the TGI in the test with CCRF-CEM leukemia, in the test on HCT-15 colon and in the test on SK-MEL-5 melanoma was > 100 µM throughout.

Take `CNC(=O)NCC1OC(n2cnc3c(NC(=O)Nc4ccccc4)ncnc32)C(O[Si](C)(C)C(C)(C)C)C1O[Si](C)(C)C(C)(C)C` (configuration not stated): the GI50 with MDA-MB-231 breast is 2.61 µM; with CCRF-CEM leukemia it was 3.59 µM; in the test on HCC-2998 colon it was 2.02 µM; in the test with PC-3 prostate it was 2.69 µM; with T-47D breast, 2.87 µM; in the test with NCI/ADR-RES ovarian it was 3.72 µM. Further, the GI50 with HCT-15 colon was 3.62 µM; in the test with SK-MEL-5 melanoma, 1.98 µM; in the test on RPMI-8226 leukemia it was 3.27 µM. Besides, the TGI with MDA-MB-231 breast was 6.12 µM; in the test on CCRF-CEM leukemia it was > 100 µM; in the test on HCC-2998 colon it was 3.75 µM; with PC-3 prostate, > 100 µM; in the test with T-47D breast, 10.3 µM; in the test with NCI/ADR-RES ovarian, 20.7 µM. In addition, the results for the TGI in the test on HCT-15 colon, in the test with SK-MEL-5 melanoma and in the test with RPMI-8226 leukemia were > 100 µM, 4.75 µM and > 100 µM, respectively.

For `Cc1ccc(S(=O)(=O)N/N=C(\c2nc3ccc(Cl)cc3[nH]c2=O)C(O)c2ccco2)cc1` (configuration not stated), the TGI in the test with CCRF-CEM leukemia, in the test with HCC-2998 colon, in the test on HCT-15 colon and in the test on SK-MEL-5 melanoma was > 100 µM in each case.

Turning to `C=CC(=O)N1C/C(=C\c2ccc(Cl)c(Cl)c2)C(=O)/C(=C/c2ccc(Cl)c(Cl)c2)C1`, the TGI in the test on SR leukemia was determined as 0.0648 µM; in the test with CCRF-CEM leukemia, 0.082 µM; in the test on HCC-2998 colon, 0.446 µM; in the test with HCT-15 colon, 0.201 µM; in the test on SK-MEL-5 melanoma, 1.74 µM; with RPMI-8226 leukemia, 0.0983 µM.

With `COc1cc(CNc2nc3c(N)cc(C(F)(F)F)cc3nc2-c2ccccc2)cc(OC)c1OC`, in the test with CCRF-CEM leukemia, the GI50 is > 100 µM. In addition, the TGI in the test on CCRF-CEM leukemia, in the test on HCC-2998 colon, with HCT-15 colon, with SK-MEL-5 melanoma and in the test with RPMI-8226 leukemia was > 100 µM each time.

As for `CCO/C=C1\N=C(c2ccc(Cl)c(Cl)c2)OC1=O`, the TGI in the test on CCRF-CEM leukemia, in the test with HCC-2998 colon, with HCT-15 colon, in the test with SK-MEL-5 melanoma and with RPMI-8226 leukemia was > 100 µM throughout.

Consider `CCC(=O)N1C/C(=C/c2ccc(Cl)cc2)C(=O)/C(=C/c2ccc(Cl)cc2)C1`, for which the GI50 is 1.05 µM in the test with MDA-MB-231 breast; 0.422 µM in the test with CCRF-CEM leukemia; 0.735 µM in the test with HCC-2998 colon; 0.464 µM with PC-3 prostate; 1.38 µM in the test on T-47D breast; 1.79 µM in the test on NCI/ADR-RES ovarian. Moreover, the GI50 was 0.386 µM in the test on HCT-15 colon, 1.46 µM with SK-MEL-5 melanoma and 0.101 µM in the test with RPMI-8226 leukemia. Also, the TGI in the test with MDA-MB-231 breast was 2.9 µM; in the test with CCRF-CEM leukemia, > 22.3 µM; in the test with HCC-2998 colon, 1.82 µM; in the test on PC-3 prostate, 2.4 µM; with T-47D breast, 3.27 µM; with NCI/ADR-RES ovarian, 12.2 µM. Besides, the TGI is 1.25 µM in the test with HCT-15 colon, 2.81 µM in the test on SK-MEL-5 melanoma and 0.911 µM with RPMI-8226 leukemia.
